According to US12551500B2, “C6′-substituted locked nucleic acid-modified cap analog and use thereof” (Hangzhou Tianlong Pharmaceutical Co., Ltd., priority 2024, dated 2026):

Legend:
BALB/C mice = experiment: In vivo imaging of protein expressed by LNP-carrying Fluc-mRNA in mice; settings: female BALB/C mice
Procedure: The LNP preparation containing […] of Fluc-mRNAs transcribed using the cap analogs YK-CAP-001 to 006 in the present disclosure and the cap analogs N-7413, compound 14, and m6A in the prior art was intramuscularly injected into female BALB/C mice aged 4 to 6 weeks and weighing 17 to 19 g. At specific time points after administration (6 hours, 12 hours, 24 hours, 48 hours, 96 hours, and 168 hours), the mice were intraperitoneally injected with fluorescence imaging substrate. The mice were then allowed to move freely for 5 minutes, followed by detection of the average radiation intensity (corresponding to the amount of protein expression) of the protein expressed by LNP-carrying mRNA in the mice using an IVIS Spectrum small-animal in vivo imaging system.

[1] = Characterization of lipid nanoparticles encapsulating Fluc-mRNA; format: physicochemical; settings: for Particle size: LNP (YK-009/DSPC/cholesterol/DMG-PEG2000) encapsulating Fluc-mRNA transcribed using the cap analog; for PDI: LNP encapsulating Fluc-mRNA transcribed using the cap analog; for EE: encapsulation efficiency of LNP encapsulating Fluc-mRNA transcribed using the cap analog
Procedure: Cationic lipid YK-009 (Beijing Youcare Kechuang Pharmaceutical Technology Co., Ltd.), DSPC (AVT (Shanghai) Pharmaceutical Technology Co., Ltd.), cholesterol (AVT (Shanghai) Pharmaceutical Technology Co., Ltd.), and DMG-PEG2000 were dissolved in ethanol at a molar ratio of 49:10:39.5:1.5, and the mRNA was diluted in 50 mM citrate buffer (pH=4). The ethanol lipid solution was mixed with the Fluc-mRNA aqueous solution prepared from different cap structures at a volume ratio of 1:3 using a microfluidic device at a flow rate of 10 mL/min to prepare LNPs at a weight ratio of total lipid to mRNA of approximately 15:1. The resulting liposomes were diluted to 10-fold volume with PBS, and then ultrafiltered with a 300 KDa ultrafiltration tube to remove ethanol. The volume was then fixed to a certain volume with PBS. Finally, the LNPs were filtered through a 0.2 μm sterile filter to obtain an LNP preparation encapsulating Fluc-mRNA using YK-009/DSPC/cholesterol/DMG-PEG2000 (at a molar ratio of 49:10:39.5:1.5).
The particle size and polydispersity index (PDI) were determined by dynamic light scattering using a Malvern laser particle size analyzer. 10 μL of the liposome solution was taken, diluted to 1 mL with RNase-free deionized water, and added to a sample pool. Each sample was measured in triplicate. The measurement conditions were: a scattering angle of 90° and a temperature of 25° C. The encapsulation efficiency of LNPs was determined using the Quant-iT RiboGreen RNA Quantification Kit (Thermo Fisher Scientific, UK) according to the manufacturer's instructions.

DCP2 enzyme = biological target: T1, DCP2 enzyme (Schizosaccharomyces pombe, UniProt O13828); experiment: Decapping enzyme stability test; format: biochemical; settings: 30 pmol RNA, 50 U mRNA decapping enzyme, 37° C., 45 minutes
T1 construct: purchased New England Biolabs
T1 sequence (O13828 1-243 limits assumed): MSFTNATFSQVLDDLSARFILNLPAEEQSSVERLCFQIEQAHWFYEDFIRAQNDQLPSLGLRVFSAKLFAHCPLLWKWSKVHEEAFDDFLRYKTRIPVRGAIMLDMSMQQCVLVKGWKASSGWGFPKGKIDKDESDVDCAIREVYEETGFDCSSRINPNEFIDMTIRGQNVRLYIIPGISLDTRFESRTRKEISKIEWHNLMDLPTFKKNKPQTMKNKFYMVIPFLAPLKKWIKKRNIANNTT
T1 sequence (Q9P805 1-127 partner): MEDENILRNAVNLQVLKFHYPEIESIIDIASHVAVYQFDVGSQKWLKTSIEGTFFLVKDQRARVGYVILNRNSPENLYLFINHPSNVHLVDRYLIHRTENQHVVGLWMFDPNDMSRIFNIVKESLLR
T1 sequence (Q10108 155-180 partner limits assumed): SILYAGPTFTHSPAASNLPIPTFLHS
Procedure: 30 pmol of RNAs purified by polyacrylamide gel electrophoresis (PAGE) was subjected to an enzymatic reaction with 50 U of mRNA decapping enzyme (New England Biolabs) and 1×MDE buffer at 37° C. for 45 minutes. The enzymatic reactants were subjected to PAGE and stained with SYBR Green II (Lonza), followed by observation of the post-electrophoresis gel image on a Typhoon FLA 7000 (GE Healthcare) instrument. The electrophoresis band intensity ratio of RNA capping to RNA decapping was counted using ImageQuant (GE Healthcare) software, and the decapping rate of the decapping enzyme was calculated (as shown in Table 6).

T7 RNA polymerase [2] = biological target: T2, T7 RNA polymerase (Escherichia phage T7, UniProt P00573); experiment: Capping rate of in vitro transcribed mRNA by LC-MS; format: biochemical; settings: mRNA transcribed with the cap analog, LC-MS
T2 sequence (P00573 whole entry): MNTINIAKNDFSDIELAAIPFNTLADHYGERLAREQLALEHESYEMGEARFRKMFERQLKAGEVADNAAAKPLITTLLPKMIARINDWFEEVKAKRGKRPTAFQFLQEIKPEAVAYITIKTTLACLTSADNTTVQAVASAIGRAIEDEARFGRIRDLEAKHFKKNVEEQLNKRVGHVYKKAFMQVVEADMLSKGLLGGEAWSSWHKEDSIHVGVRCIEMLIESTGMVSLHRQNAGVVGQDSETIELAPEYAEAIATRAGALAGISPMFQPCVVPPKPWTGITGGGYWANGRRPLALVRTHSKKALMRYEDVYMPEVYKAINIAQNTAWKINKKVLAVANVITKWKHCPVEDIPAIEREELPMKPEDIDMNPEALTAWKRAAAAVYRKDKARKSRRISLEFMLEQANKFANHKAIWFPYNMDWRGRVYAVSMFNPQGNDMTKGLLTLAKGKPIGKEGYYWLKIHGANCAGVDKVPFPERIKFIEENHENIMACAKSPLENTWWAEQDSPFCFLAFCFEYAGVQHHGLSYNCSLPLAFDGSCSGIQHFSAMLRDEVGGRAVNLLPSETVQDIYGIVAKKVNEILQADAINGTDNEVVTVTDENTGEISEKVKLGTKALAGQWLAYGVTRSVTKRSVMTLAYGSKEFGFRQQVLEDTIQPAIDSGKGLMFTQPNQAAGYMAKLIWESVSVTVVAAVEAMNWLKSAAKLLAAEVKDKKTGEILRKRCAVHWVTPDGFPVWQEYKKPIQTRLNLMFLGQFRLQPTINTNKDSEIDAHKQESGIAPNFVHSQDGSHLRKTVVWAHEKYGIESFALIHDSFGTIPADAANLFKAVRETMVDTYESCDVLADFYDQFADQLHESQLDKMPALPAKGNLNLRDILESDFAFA
Procedure: (§1) YK-CAP-001 to 006 and compound 14 in Table 1 were respectively used as cap analogs.
(§2) During the experiment, the volume of materials required for the system was first calculated, and then sample addition was conducted. The system was first added with sterile enzyme-free water, followed by the sequential addition of 10× buffer, NTPs, and cap analogs, mixed well, and gently centrifuged. Nuclease inhibitors, inorganic pyrophosphatase, T7 RNA polymerase, and linearized DNA templates were then added thereto. The system was mixed well, gently centrifuged, and incubated at 37° C. After 2 hours of incubation, the system was added with 1 U of DNase I and incubated at 37° C. for another 30 minutes. The mRNA precipitate was then washed with 75% ethanol, and after the ethanol was briefly evaporated to dryness, the mRNA was redissolved in sterile enzyme-free water.
(4) The obtained mRNA was subjected to an annealing reaction with a probe.
The annealing reaction was performed in a PCR instrument: 95° C. for 5 minutes; 65° C. for 2 minutes; 55° C. for 2 minutes; 40° C. for 2 minutes; 22° C. for 2 minutes.
(5) Magnetic bead pretreatment and probe binding: 100 μL of magnetic beads was placed on a magnetic frame for pretreatment. The magnetic bead solution was added with 120 μL of sample and incubated at room temperature for 30 minutes with slow mixing.
(6) mRNA splicing and obtaining the 5′ single-strand sequence bound to the probe
The mixture was added with 20 μL of RNase H (5 U/μL) and incubated at 37° C. for 3 hours with mixing every half hour. After incubation, the magnetic beads were washed and then added with 100 μL of 75% methanol heated to 80° C. The mixture was heated to 80° C. on a heating plate, held for 3 minutes, then placed on a magnetic frame to aspirate the supernatant, and dried at room temperature for 45 minutes to a volume of 10 μL using a centrifugal evaporator. The sample was then resuspended in 50 μL of 100 μM EDTA/1% MeOH and ready for LC-MS analysis to determine the capping of RNA in the transcription reaction. Since there is a significant difference in molecular weight between capped and uncapped bases, the capping rate of mRNA transcription initiated by different cap analogs can be determined based on the difference in molecular mass.

T7 RNA polymerase [3] = biological target: T2, T7 RNA polymerase; experiment: In vitro transcription yield of mRNA with cap analog (co-transcriptional capping); format: biochemical; set-up: in vitro transcription yield of mRNA: unit not given here; settings: for Yield per unit template: in vitro transcription, 1 μg DNA template, 20 μL system, 37° C. 2 hours
Procedure: (1) Capping synthesis using cap analogs
The plasmid was first linearized with plasmid linearizing enzyme, and then the linearized plasmid was purified.
(2) In vitro transcription and synthesis of mRNA
as §1, §2
(3) The transcription product was purified, and the in vitro transcription yield of mRNA was recorded.

[4] = 6 h after intramuscular injection of LNP Fluc-mRNA
[5] = 12 h after intramuscular injection of LNP Fluc-mRNA
[6] = 24 h after intramuscular injection of LNP Fluc-mRNA
[7] = 48 h after intramuscular injection of LNP Fluc-mRNA
[8] = 96 h after intramuscular injection of LNP Fluc-mRNA
[9] = 168 h after intramuscular injection of LNP Fluc-mRNA

Row | Compound | Average radiation intensity (BALB/C mice; [4]) [p/s/cm^2/sr] | Average radiation intensity (BALB/C mice; 6 h after intramuscular injection of LNP Fluc-mRNA, listed as compound 14) | Average radiation intensity (BALB/C mice; [5]) [p/s/cm^2/sr] | Average radiation intensity (BALB/C mice; [6]) [p/s/cm^2/sr] | Average radiation intensity (BALB/C mice; [7]) [p/s/cm^2/sr] | Average radiation intensity (BALB/C mice; [8]) [p/s/cm^2/sr] | Average radiation intensity (BALB/C mice; [9]) [p/s/cm^2/sr] | Particle size [1] [nm] | PDI [1] | EE [1] [%] | Decapping rate (%) of DCP2 enzyme (DCP2 enzyme) [%] | Capping rate (T7 RNA polymerase [2]) [%] | Yield per unit template (T7 RNA polymerase [3]) [µg] | in vitro transcription yield of mRNA (T7 RNA polymerase [3])
1 | COC1C(OP(=O)([O-])OC[C@H]2O[C@@H](n3cnc4c(=O)[nH]c(N)nc43)C(O)C2O)[C@@H](COP(=O)(O)OP(=O)(O)OP(=O)(O)OC[C@]23COC(C2O)[C@H]([n+]2cn(C)c4c(=O)[nH]c(N)nc42)O3)O[C@H]1n1cnc2c(N)ncnc21 (stereo partly drawn) [Compound 14, reference compound] | 2589500 | 2,589,500 p/s/cm^2/sr | 1622075 | 1099050 | 946675 | 57270 | 17828 | 102.2 | 0.018 | 96.8 | 28.8 | 77.5 | 120.9 | 
2 | COCC1C(O)[C@H]([n+]2cn(C)c3c(=O)[nH]c(N)nc32)O[C@@H]1COP(=O)(O)OP(=O)(O)OP(=O)(O)OC[C@H]1O[C@@H](n2cnc3c(N)ncnc32)C(OC)C1OP(=O)([O-])OC[C@H]1O[C@@H](n2cnc3c(=O)[nH]c(N)nc32)C(O)C1O (stereo partly drawn) [HN3002, reference compound] |  |  |  |  |  |  |  | 91.03 | 0.032 | 94.8 | 23.2 |  |  | 
3 | COC1C(OP(=O)([O-])OC[C@H]2O[C@@H](n3cnc4c(=O)[nH]c(N)nc43)C(O)C2O)[C@@H](COP(=O)(O)OP(=O)(O)OP(=O)(O)OC[C@H]2O[C@@H]([n+]3cn(C)c4c(=O)[nH]c(N)nc43)C(O)C2OC)O[C@H]1n1cnc2c(N)ncnc21 (stereo partly drawn) [N-7413, reference compound] |  |  | 1806125 | 906625 | 710545 | 68400 | 18233 | 100.5 | 0.041 | 95.4 | 48.6 |  |  | 
4 | COC1C(OP(=O)([O-])OC[C@H]2O[C@@H](n3cnc4c(=O)[nH]c(N)nc43)C(O)C2O)[C@@H](COP(=O)(O)OP(=O)(O)OP(=O)(O)OC[C@]23O[C@@H]([n+]4cn(C)c5c(=O)[nH]c(N)nc54)C(O[C@H]2CCN(C)C)C3O)O[C@H]1n1cnc2c(N)ncnc21 (stereo partly drawn) [YK-CAP-001] | 1728300 |  | 985800 | 612430 | 578750 | 43485 | 10467 | 86.13 | 0.044 | 95.7 | 26.3 | 73.1 | 89.3 | 89.3
5 | COC1C(OP(=O)([O-])OC[C@H]2O[C@@H](n3cnc4c(=O)[nH]c(N)nc43)C(O)C2O)[C@@H](COP(=O)(O)OP(=O)(O)OP(=O)(O)OC[C@]23O[C@@H]([n+]4cn(C)c5c(=O)[nH]c(N)nc54)C(O[C@H]2CC#N)C3O)O[C@H]1n1cnc2c(N)ncnc21 (stereo partly drawn) [YK-CAP-002] | 1466925 |  | 801300 | 278665 | 320725 | 20893 | 9768 | 86.31 | 0.058 | 93.1 | 24.6 | 70.2 | 103.1 | 
6 | CNc1ncnc2c1ncn2[C@@H]1O[C@H](COP(=O)(O)OP(=O)(O)OP(=O)(O)OC[C@H]2O[C@@H]([n+]3cn(C)c4c(=O)[nH]c(N)nc43)C(O)C2O)C(OP(=O)([O-])OC[C@H]2O[C@@H](n3cnc4c(=O)[nH]c(N)nc43)C(O)C2O)C1OC (stereo partly drawn) [m6A, reference compound] |  |  | 702940 | 201585 | 238500 | 33586 | 12000 | 89.99 | 0.047 | 94.2 | 27.5 |  |  | 
